Results taken from patent US20040253262A1, “Biological compositions and methods for treatment of lymphoma” (priority 2003, published 2004).

Tests used:
Burkitt's lymphoma cells = test: Athymic nude mouse model with transplanted Burkitt's lymphoma cells, survival after treatment; type: in vivo; details: 36 at start
Procedure: A model based on transplantation of Burkitt's lymphoma cell in athymic nude mice was used (Gurtsevitch et al., 1988, Int J Cancer 15;41(1):87-95). The model was set up as described in Shiyan Dongwu Yu Zhongliu Yanjiu (Experimental Animal & Tumor Research), April 2000, by Chinese Medical Technology Publisher. Essentially, seven week old mice were injected intravenously each with 1×10^6 Burkitt's lymphoma cells.
Twenty-one days after the injection of lymphoma cells, the mice were divided into two series of five groups: one series received treatment for 30 days, the other series received treatment for 60 days. […] The mice in group A received saline orally. The mice in group B received subcutaneous injection of cyclophosphamide at a dose of 30 mg per kg body weight per day. Group C received subcutaneous injection of cyclophosphamide at a dose of 45 mg per kg body weight per day. The mice in group D received 0.3 ml of the oral composition per day. Group E received 0.5 ml of the oral composition per day.
After the 30-day or 60-day treatment, the mice were fed a normal diet and allowed to live under the same environment. The health and survival of the nude mice were observed and compared over 360 days.
Each group consisted of 36 mice at the beginning of the experiment (3 repeats). The total number of surviving mice in each group were counted at the end of every month up to 12 months after treatment stopped.

spontaneous lymphoma = test: Inbred PBA mouse model of lymphoma, survival after treatment; type: in vivo; details: 36 at start
Procedure: A model based on inbred PBA mice which manifest a high incidence of tumor was used (Bailey et al., 1970, J Natl. Cancer Inst. 45(1):59-73). Mice six to eight weeks old were treated by the method as described in Shiyan Dongwu Yu Zhongliu Yanjiu (Experimental Animal & Tumor Research), April 2000, by Chinese Medical Technology Publisher.
In the first series, the mice in group AY received 0.3 ml of the oral composition of the invention per day. The mice in group NY received 0.3 ml per day of a composition comprising at a similar concentration the same strain of yeast which had not been activated and conditioned. The mice in group CTX received subcutaneous injection of cyclophosphamide at a dose of 30 mg per kg body weight per day. […] The experiment was carried out over a 30-day treatment period.
In the second series, the mice in group 2AY received 0.5 ml of the oral composition of the invention per day. The mice in group 2NY received 0.5 ml per day of a composition comprising the same strain of yeast which had not been activated and conditioned at a similar concentration. The mice in group 2CTX received subcutaneous injection of cyclophosphamide at a dose of 45 mg per kg body weight per day. […] The experiment was carried out over a 60-day treatment period.
After the 30-day or 60-day treatment, the mice were fed a normal diet and allowed to live under the same environment. The health and survival of the mice were observed and compared over 180 days.
Each group consisted of 36 mice at the beginning of the experiment (3 repeats). The total number of surviving mice in each group were counted at the end of every month up to 6 months after treatment stopped.

Measured: total number of surviving mice

O=P1(N(CCCl)CCCl)NCCCO1 (stereo not drawn) [cyclophosphamide]
12: Burkitt's lymphoma cells; 45 mg/kg per day s.c. (group C), 60-day treatment, day 150 after treatment period
0: Burkitt's lymphoma cells; 30 mg/kg per day s.c. (group B), 30-day treatment, day 210 after treatment period | Burkitt's lymphoma cells; 30 mg/kg per day s.c. (group B), 30-day treatment, day 240 after treatment period | Burkitt's lymphoma cells; 30 mg/kg per day s.c. (group B), 30-day treatment, day 270 after treatment period | Burkitt's lymphoma cells; 30 mg/kg per day s.c. (group B), 30-day treatment, day 300 after treatment period | Burkitt's lymphoma cells; 30 mg/kg per day s.c. (group B), 30-day treatment, day 330 after treatment period | Burkitt's lymphoma cells; 30 mg/kg per day s.c. (group B), 30-day treatment, day 360 after treatment period | Burkitt's lymphoma cells; 30 mg/kg per day s.c. (group B), 60-day treatment, day 240 after treatment period | Burkitt's lymphoma cells; 30 mg/kg per day s.c. (group B), 60-day treatment, day 270 after treatment period | Burkitt's lymphoma cells; 30 mg/kg per day s.c. (group B), 60-day treatment, day 300 after treatment period | Burkitt's lymphoma cells; 30 mg/kg per day s.c. (group B), 60-day treatment, day 330 after treatment period | Burkitt's lymphoma cells; 30 mg/kg per day s.c. (group B), 60-day treatment, day 360 after treatment period | Burkitt's lymphoma cells; 45 mg/kg per day s.c. (group C), 30-day treatment, day 270 after treatment period | Burkitt's lymphoma cells; 45 mg/kg per day s.c. (group C), 30-day treatment, day 300 after treatment period | Burkitt's lymphoma cells; 45 mg/kg per day s.c. (group C), 30-day treatment, day 330 after treatment period | Burkitt's lymphoma cells; 45 mg/kg per day s.c. (group C), 30-day treatment, day 360 after treatment period | Burkitt's lymphoma cells; 45 mg/kg per day s.c. (group C), 60-day treatment, day 240 after treatment period | Burkitt's lymphoma cells; 45 mg/kg per day s.c. (group C), 60-day treatment, day 270 after treatment period | Burkitt's lymphoma cells; 45 mg/kg per day s.c. (group C), 60-day treatment, day 300 after treatment period | Burkitt's lymphoma cells; 45 mg/kg per day s.c. (group C), 60-day treatment, day 330 after treatment period | Burkitt's lymphoma cells; 45 mg/kg per day s.c. (group C), 60-day treatment, day 360 after treatment period | spontaneous lymphoma; 30 mg/kg per day s.c., 30-day treatment, day 150 after treatment period | spontaneous lymphoma; 30 mg/kg per day s.c., 30-day treatment, day 180 after treatment period
2: Burkitt's lymphoma cells; 30 mg/kg per day s.c. (group B), 60-day treatment, day 210 after treatment period | Burkitt's lymphoma cells; 45 mg/kg per day s.c. (group C), 30-day treatment, day 210 after treatment period
27: Burkitt's lymphoma cells; 45 mg/kg per day s.c. (group C), 30-day treatment, day 60 after treatment period | Burkitt's lymphoma cells; 45 mg/kg per day s.c. (group C), 60-day treatment, day 90 after treatment period | spontaneous lymphoma; 30 mg/kg per day s.c., 30-day treatment, day 60 after treatment period
5: Burkitt's lymphoma cells; 30 mg/kg per day s.c. (group B), 30-day treatment, day 120 after treatment period | Burkitt's lymphoma cells; 30 mg/kg per day s.c. (group B), 60-day treatment, day 180 after treatment period
35: Burkitt's lymphoma cells; 30 mg/kg per day s.c. (group B), 60-day treatment, day 0 after treatment period | Burkitt's lymphoma cells; 30 mg/kg per day s.c. (group B), 60-day treatment, day 30 after treatment period | Burkitt's lymphoma cells; 45 mg/kg per day s.c. (group C), 30-day treatment, day 0 after treatment period | Burkitt's lymphoma cells; 45 mg/kg per day s.c. (group C), 30-day treatment, day 30 after treatment period
29: spontaneous lymphoma; 30 mg/kg per day per table head (45 mg/kg elsewhere in the source) s.c., 60-day treatment (group 2CTX), day 60 after treatment period
1: Burkitt's lymphoma cells; 30 mg/kg per day s.c. (group B), 30-day treatment, day 180 after treatment period | Burkitt's lymphoma cells; 45 mg/kg per day s.c. (group C), 30-day treatment, day 240 after treatment period
17: Burkitt's lymphoma cells; 45 mg/kg per day s.c. (group C), 30-day treatment, day 120 after treatment period | spontaneous lymphoma; 30 mg/kg per day s.c., 30-day treatment, day 120 after treatment period
4: Burkitt's lymphoma cells; 45 mg/kg per day s.c. (group C), 30-day treatment, day 180 after treatment period
3: Burkitt's lymphoma cells; 30 mg/kg per day s.c. (group B), 30-day treatment, day 150 after treatment period | Burkitt's lymphoma cells; 45 mg/kg per day s.c. (group C), 60-day treatment, day 210 after treatment period
9: Burkitt's lymphoma cells; 30 mg/kg per day s.c. (group B), 60-day treatment, day 150 after treatment period
24: Burkitt's lymphoma cells; 30 mg/kg per day s.c. (group B), 30-day treatment, day 60 after treatment period | Burkitt's lymphoma cells; 30 mg/kg per day s.c. (group B), 60-day treatment, day 90 after treatment period
34: Burkitt's lymphoma cells; 45 mg/kg per day s.c. (group C), 60-day treatment, day 0 after treatment period | Burkitt's lymphoma cells; 45 mg/kg per day s.c. (group C), 60-day treatment, day 30 after treatment period | Burkitt's lymphoma cells; 45 mg/kg per day s.c. (group C), 60-day treatment, day 60 after treatment period
21: Burkitt's lymphoma cells; 45 mg/kg per day s.c. (group C), 30-day treatment, day 90 after treatment period | spontaneous lymphoma; 30 mg/kg per day per table head (45 mg/kg elsewhere in the source) s.c., 60-day treatment (group 2CTX), day 90 after treatment period
8: spontaneous lymphoma; 30 mg/kg per day per table head (45 mg/kg elsewhere in the source) s.c., 60-day treatment (group 2CTX), day 180 after treatment period
33: Burkitt's lymphoma cells; 30 mg/kg per day s.c. (group B), 30-day treatment, day 30 after treatment period | Burkitt's lymphoma cells; 30 mg/kg per day s.c. (group B), 60-day treatment, day 60 after treatment period | spontaneous lymphoma; 30 mg/kg per day s.c., 30-day treatment, day 30 after treatment period
36: Burkitt's lymphoma cells; 30 mg/kg per day s.c. (group B), 30-day treatment, day 0 after treatment period | spontaneous lymphoma; 30 mg/kg per day per table head (45 mg/kg elsewhere in the source) s.c., 60-day treatment (group 2CTX), day 0 after treatment period | spontaneous lymphoma; 30 mg/kg per day per table head (45 mg/kg elsewhere in the source) s.c., 60-day treatment (group 2CTX), day 30 after treatment period | spontaneous lymphoma; 30 mg/kg per day s.c., 30-day treatment, day 0 after treatment period
11: Burkitt's lymphoma cells; 45 mg/kg per day s.c. (group C), 30-day treatment, day 150 after treatment period
7: Burkitt's lymphoma cells; 45 mg/kg per day s.c. (group C), 60-day treatment, day 180 after treatment period
14: Burkitt's lymphoma cells; 30 mg/kg per day s.c. (group B), 30-day treatment, day 90 after treatment period | spontaneous lymphoma; 30 mg/kg per day per table head (45 mg/kg elsewhere in the source) s.c., 60-day treatment (group 2CTX), day 120 after treatment period | spontaneous lymphoma; 30 mg/kg per day per table head (45 mg/kg elsewhere in the source) s.c., 60-day treatment (group 2CTX), day 150 after treatment period
19: Burkitt's lymphoma cells; 30 mg/kg per day s.c. (group B), 60-day treatment, day 120 after treatment period | Burkitt's lymphoma cells; 45 mg/kg per day s.c. (group C), 60-day treatment, day 120 after treatment period | spontaneous lymphoma; 30 mg/kg per day s.c., 30-day treatment, day 90 after treatment period
